Data from patent publication US20250129370A1, “METHOD FOR REDUCING HEPATIC TRIGLYCERIDES” (ADAERATA, LIMITED PARTNERSHIP, priority 2022, published 2025).

Columns and labels:
apoB = apoB degradation pathway in WT and PCSK7-/- IHH cells with pathway inhibitors; assay type: cell-based, human
Description: FIGS. 7A-l: PCSK7 can bind apoB in the ER and acts as a molecular chaperone-like facilitating its secretion, and its absence leads to a rapid degradation of apoB by the proteasome. […] (FIG. 7A) Western blot (presented on gel and graphically) of apoB100 and PC7 protein levels in WT and PCSK7^−/− IHH cells. Levels are normalized to α-tubulin. (FIG. 7B) Western blot (presented on gel and graphically) of apoB100 and PC7 protein levels over time (0, 15 and 30 minutes) in WT and PCSK7^−/− IHH cells incubated with cycloheximide (CHX) to block de novo mRNA translation. Levels are normalized to α-tubulin. (FIG. 7C-D) Western blot (presented on gel and graphically) of cellular apoB levels in WT and PCSK7^−/− IHH cells incubated with brefeldin A (BFA) that blocks exit from the endoplasmic reticulum (ER), an autophagy inhibitor 3-methyladenine (3MA), proteasome inhibitors MG132, Lactacystin, DMSO or non treated (NT) controls. (FIG. 7E) Western blot (presented on gel) of cellular apoB levels and polyubiquitinated apoB100 in WT and PCSK7^−/− IHH cells incubated with Lactacystin. (FIG. 7F) Schematic representation of apoB100 and apoB21 protein. […]

[1] = tested on: 3′-UTR of human PCSK7 mRNAs; assay: Dual-luciferase reporter assay, wild-type PCSK7 3′-UTR, HEK293T cells; assay type: cell-based; conditions: wild-type PCSK7 3′-UTR psiCHECK-2, HEK293T
Description: The interactions between the miRNAs and their probable targets on PCSK7 were explored by cloning the potential target regions in psiCHECK-2™ (Promega, USA), a luciferase reporter vector. In psiCHECK-2™, hRluc, the Renilla luciferase gene, is located upstream of the target regions of interest cloned into the psiCHECK-2™ vector downstream of the Renilla gene. The region corresponding to the 3′-UTR of PCSK7 (926-nt sequences in length) that constituted the predicted miRNA response elements was PCR-amplified and cloned downstream of the Renilla luciferase gene in the psiCHECK-2™ vector (Promega, USA). […]
The HEK293T cells were co-transfected through the application of the wild-type psiCHECK-2, the wild-type PCSK7 3′-UTR, the mutant PCSK7 3′-UTR, and the miR-overexpressing vectors so that the direct interactions of the nominated miRNAs with PCSK7 3′-UTR could be investigated. […] Transfection efficiency was monitored by fluorescent microscopy (Nikon TE2000S, Japan) 36 hours following the procedure.
The PsiCHECK-2 reporter construct plasmid contained the Renilla luciferase gene upstream of PCSK7 3′-UTR and an independent firefly luciferase gene as an internal control for normalization. […] Then, LARII Reagent was added, and after 20 minutes, the firefly luciferase activity was measured as a control. Afterward, Renilla activity was determined using Stop & Glo Reagent. […]

PCSK7 mRNA [2] = assay: PCSK7 mRNA qPCR after miRNA overexpression in HEK293T cells; assay type: cell-based, human
Description: (§1) RNA was isolated from the cells with the TRIzol™ Reagent (Invitrogen, USA) according to the manufacturer's instructions. The RNA samples were treated with RNase-free DNase I (Fermentas, USA) to eliminate any possible DNA contamination. Reverse transcription was performed using the PrimeScript™ First Strand cDNA Synthesis Kit (Takara, Japan) following the manufacturer's protocol. Briefly, one unit of the DNase I enzyme, 1 μL of a buffer, and 1 μg of total RNA were incubated for 30 minutes at 37° C. Then, 1 μL of 50 mM EDTA was added for enzyme inactivation and incubated at 65° C. for 10 minutes. Subsequently, 5 μL of DNase-treated RNA was added to the mix of 0.5 μL of the reverse-transcriptase enzyme, 2 μL of the reverse-transcriptase buffer, and 1 μL of a random hexamer and incubated for 15 minutes at 37° C., followed by 5 seconds at 85° C. for enzyme inactivation. Stem-loop RT-qPCR method was applied for evaluating the expression of miRNAs (Kramer, 2011). […]
(§2) All the reactions were repeated in duplicates. Next, melt curves were analyzed, with the mean threshold cycles used for further analyses. The relative expressions of the miRNAs and PCSK7 to RNU48 small nuclear RNA and/or GAPDH and β2m were calculated, respectively, via the 2-ΔΔCt method. […]

PCSK7 mRNA [3] = assay: PCSK7 mRNA qPCR after miRNA overexpression in Huh7 cells; assay type: cell-based, human; conditions: Huh7, 48 hours following transfection, vs mock vector
Description: as §1, §2

[4] = target: T1, endogenous apoB100 of IHH cells (human, UniProt P04114 28-4563); assay: co-immunoprecipitation from IHH cell lysates with a human ApoB antibody, Western blot for the V5 tag (FIG. 7I)
T1 construct: Endogenous protein in lysates of human IHH cells; also called apolipoprotein B
T1 sequence (P04114 28-4563 limits assumed): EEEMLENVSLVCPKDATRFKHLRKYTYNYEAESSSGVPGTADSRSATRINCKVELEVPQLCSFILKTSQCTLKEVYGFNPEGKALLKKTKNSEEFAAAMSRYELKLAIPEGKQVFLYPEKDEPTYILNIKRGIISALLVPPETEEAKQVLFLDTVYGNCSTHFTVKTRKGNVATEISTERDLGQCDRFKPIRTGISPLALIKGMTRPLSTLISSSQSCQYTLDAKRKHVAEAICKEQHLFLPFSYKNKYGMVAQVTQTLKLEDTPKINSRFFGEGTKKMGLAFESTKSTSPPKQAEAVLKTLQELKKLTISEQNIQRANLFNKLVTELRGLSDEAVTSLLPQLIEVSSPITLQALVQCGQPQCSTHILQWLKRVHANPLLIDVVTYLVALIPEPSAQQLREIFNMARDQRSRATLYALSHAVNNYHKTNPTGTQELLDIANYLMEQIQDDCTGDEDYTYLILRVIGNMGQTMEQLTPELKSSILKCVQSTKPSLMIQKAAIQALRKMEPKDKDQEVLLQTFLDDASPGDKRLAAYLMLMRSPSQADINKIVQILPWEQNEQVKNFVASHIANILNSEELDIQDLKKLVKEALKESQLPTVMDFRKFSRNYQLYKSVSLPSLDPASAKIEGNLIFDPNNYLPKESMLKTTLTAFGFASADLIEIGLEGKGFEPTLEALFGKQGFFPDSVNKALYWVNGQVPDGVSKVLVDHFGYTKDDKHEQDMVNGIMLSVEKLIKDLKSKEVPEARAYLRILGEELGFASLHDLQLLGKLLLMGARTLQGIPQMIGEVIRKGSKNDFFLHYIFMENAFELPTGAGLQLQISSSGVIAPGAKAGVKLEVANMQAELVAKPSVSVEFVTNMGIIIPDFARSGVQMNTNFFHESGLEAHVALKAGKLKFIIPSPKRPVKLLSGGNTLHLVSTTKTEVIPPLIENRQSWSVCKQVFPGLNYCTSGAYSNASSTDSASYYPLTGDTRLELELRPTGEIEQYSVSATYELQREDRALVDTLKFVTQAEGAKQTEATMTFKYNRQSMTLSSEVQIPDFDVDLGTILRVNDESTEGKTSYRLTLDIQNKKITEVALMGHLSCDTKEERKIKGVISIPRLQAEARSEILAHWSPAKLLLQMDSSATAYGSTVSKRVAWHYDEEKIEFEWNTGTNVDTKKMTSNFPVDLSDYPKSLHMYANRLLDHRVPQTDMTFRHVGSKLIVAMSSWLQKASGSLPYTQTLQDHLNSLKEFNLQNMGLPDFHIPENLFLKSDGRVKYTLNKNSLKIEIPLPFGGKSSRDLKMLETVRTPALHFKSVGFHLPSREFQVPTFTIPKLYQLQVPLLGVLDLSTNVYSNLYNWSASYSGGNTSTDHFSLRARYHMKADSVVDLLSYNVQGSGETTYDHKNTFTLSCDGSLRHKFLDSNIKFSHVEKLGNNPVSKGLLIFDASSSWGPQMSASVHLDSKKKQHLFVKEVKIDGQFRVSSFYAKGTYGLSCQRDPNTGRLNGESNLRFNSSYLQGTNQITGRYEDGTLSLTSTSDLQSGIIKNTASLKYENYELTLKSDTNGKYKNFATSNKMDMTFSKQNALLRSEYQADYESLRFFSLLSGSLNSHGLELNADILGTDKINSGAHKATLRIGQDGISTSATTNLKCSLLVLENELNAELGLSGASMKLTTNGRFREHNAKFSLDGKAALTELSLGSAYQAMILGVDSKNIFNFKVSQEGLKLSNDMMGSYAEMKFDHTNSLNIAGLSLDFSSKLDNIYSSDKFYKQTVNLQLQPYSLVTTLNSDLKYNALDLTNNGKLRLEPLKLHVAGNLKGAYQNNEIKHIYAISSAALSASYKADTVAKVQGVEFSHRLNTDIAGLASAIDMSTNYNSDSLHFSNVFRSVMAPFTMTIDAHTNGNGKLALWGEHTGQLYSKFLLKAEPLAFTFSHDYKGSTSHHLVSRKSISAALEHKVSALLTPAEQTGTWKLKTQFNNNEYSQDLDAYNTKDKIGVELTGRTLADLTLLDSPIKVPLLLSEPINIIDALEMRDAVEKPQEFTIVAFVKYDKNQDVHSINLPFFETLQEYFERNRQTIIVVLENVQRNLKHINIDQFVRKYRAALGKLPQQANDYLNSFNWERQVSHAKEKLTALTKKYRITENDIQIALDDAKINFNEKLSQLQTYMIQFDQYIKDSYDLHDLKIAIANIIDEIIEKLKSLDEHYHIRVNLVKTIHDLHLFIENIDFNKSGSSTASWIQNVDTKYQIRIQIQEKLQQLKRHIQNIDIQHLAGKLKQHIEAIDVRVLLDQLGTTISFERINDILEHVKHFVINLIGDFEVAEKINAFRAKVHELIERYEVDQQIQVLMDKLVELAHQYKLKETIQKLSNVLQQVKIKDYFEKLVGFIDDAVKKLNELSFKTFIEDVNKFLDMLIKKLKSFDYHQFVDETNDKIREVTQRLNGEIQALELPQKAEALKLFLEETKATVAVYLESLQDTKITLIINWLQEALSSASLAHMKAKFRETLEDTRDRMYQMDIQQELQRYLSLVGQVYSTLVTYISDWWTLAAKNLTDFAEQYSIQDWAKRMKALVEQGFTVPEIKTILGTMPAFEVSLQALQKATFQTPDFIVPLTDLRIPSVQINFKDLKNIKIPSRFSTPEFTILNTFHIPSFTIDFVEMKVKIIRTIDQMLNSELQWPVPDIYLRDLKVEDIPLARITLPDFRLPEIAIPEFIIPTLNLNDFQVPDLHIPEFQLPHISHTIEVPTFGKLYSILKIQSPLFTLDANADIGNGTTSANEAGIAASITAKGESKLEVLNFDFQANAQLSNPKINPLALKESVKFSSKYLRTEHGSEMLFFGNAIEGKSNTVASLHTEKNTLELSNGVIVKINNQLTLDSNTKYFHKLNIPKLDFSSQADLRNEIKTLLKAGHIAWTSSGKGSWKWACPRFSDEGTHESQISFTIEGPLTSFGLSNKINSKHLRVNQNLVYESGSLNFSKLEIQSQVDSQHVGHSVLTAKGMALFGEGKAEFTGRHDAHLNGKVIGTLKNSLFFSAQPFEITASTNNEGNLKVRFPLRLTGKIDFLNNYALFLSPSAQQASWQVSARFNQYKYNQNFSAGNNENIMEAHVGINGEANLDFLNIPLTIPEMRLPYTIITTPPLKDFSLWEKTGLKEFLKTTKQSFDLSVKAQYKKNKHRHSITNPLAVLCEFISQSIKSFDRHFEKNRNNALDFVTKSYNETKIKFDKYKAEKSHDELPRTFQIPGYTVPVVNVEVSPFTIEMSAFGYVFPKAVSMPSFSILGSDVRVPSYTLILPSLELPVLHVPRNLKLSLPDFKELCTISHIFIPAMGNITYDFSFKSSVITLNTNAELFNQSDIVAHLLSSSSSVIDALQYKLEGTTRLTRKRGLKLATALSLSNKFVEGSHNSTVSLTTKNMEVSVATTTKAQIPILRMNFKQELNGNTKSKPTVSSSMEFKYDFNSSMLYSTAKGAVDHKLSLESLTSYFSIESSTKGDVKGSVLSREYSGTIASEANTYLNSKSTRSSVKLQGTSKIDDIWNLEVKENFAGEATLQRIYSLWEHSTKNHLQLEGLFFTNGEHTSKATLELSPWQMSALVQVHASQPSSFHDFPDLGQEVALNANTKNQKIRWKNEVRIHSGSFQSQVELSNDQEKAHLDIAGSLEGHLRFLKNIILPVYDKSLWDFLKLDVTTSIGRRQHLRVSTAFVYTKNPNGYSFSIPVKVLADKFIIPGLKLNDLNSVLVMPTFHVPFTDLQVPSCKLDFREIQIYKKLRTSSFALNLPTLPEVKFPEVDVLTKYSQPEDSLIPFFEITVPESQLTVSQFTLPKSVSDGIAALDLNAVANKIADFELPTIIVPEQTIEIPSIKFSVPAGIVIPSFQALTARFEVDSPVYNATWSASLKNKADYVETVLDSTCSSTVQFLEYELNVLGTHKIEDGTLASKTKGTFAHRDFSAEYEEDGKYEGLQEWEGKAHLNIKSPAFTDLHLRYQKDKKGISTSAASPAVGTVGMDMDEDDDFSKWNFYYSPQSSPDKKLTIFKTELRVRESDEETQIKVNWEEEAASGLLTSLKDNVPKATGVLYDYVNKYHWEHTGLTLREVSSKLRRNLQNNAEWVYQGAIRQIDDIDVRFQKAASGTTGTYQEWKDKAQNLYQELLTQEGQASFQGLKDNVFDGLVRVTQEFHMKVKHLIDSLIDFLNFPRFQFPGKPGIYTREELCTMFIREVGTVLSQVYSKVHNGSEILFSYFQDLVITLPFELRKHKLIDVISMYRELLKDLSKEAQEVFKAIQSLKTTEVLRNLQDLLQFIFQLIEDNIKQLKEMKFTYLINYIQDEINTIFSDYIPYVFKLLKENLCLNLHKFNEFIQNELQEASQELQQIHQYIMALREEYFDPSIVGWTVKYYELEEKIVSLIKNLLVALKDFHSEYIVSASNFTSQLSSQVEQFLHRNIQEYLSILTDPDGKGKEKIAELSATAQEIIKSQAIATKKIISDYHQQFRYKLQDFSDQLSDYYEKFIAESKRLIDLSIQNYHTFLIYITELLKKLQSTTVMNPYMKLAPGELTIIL

C[C@H]1CCC/C=C/[C@@H]2C[C@H](O)C[C@H]2[C@H](O)/C=C/C(=O)O1 [BFA, brefeldin A]
inhibition of apoB degradation (apoB): absence of BFA inhibition

miR-320a-3p: predicted PCSK7-targeting miRNA with one predicted target site, overexpressed from precursor vector (AAAAGCUGGGUUGAGAGGGCGA; miRNA expressed from a precursor vector, further chemistry not given here)
effect on luciferase activity [1]: no significant effect | effect on PCSK7 mRNA levels (PCSK7 mRNA [2]): no significant regulatory relationship | effect on expression of PCSK7 mRNA (PCSK7 mRNA [3]): did not downregulate

B1: SKI-1 tagged with V5 (enzyme, UniProt Q14703 187-1052, looked up)
chain: RAIPRQVAQTLQADVLWQMGYTGANVRVAVFDTGLSEKHPHFKNVKERTNWTNERTLDDGLGHGTFVAGVIASMRECQGFAPDAELHIFRVFTNNQVSYTSWFLDAFNYAILKKIDVLNLSIGGPDFMDHPFVDKVWELTANNVIMVSAIGNDGPLYGTLNNPADQMDVIGVGGIDFEDNIARFSSRGMTTWELPGGYGRMKPDIVTYGAGVRGSGVKGGCRALSGTSVASPVVAGAVTLLVSTVQKRELVNPASMKQALIASARRLPGVNMFEQGHGKLDLLRAYQILNSYKPQASLSPSYIDLTECPYMWPYCSQPIYYGGMPTVVNVTILNGMGVTGRIVDKPDWQPYLPQNGDNIEVAFSYSSVLWPWSGYLAISISVTKKAASWEGIAQGHVMITVASPAETESKNGAEQTSTVKLPIKVKIIPTPPRSKRVLWDQYHNLRYPPGYFPRDNLRMKNDPLDWNGDHIHTNFRDMYQHLRSMGYFVEVLGAPFTCFDASQYGTLLMVDSEEEYFPEEIAKLRRDVDNGLSLVIFSDWYNTSVMRKVKFYDENTRQWWMPDTGGANIPALNELLSVWNMGFSDGLYEGEFTLANHDMYYASGCSIAKFPEDGVVITQTFKDQGLEVLKQETAVVENVPILGLYQIPAEGGGRIVLYGDSNCLDDSHRQKDCFWLLDALLQYTSYGVTPPSLSHSGNRQRPPSGAGSVTPERMEGNHLHRYSKVLEAHLGDPKPRPLPACPRLSWAKPQPLNETAPSNLWKHQKLLSIDLDKVVLPNFRSNRPQVRPLSPGESGAWDIPGGIMPGRYNQEVGQTIPVFAFLGAMVVLAFFVVQINKAKSRPKRRKPRVKRPQLMQQVHPPKTPSV
notes: also called SKI-1-V5; not shown: V5 tag
binding result [4]: no binding
